Test results as given in US20230286973A1, “PROTEIN SECRETION INHIBITORS” (KEZAR LIFE SCIENCES, priority 2020, published 2023).

Legend:
[1] = test system: multiple myeloma cell line NCI-H929; test: H929 Cell Viability Assay; assay type: cell-based, human; settings: Homo sapiens, NCI-H929, 48 h, NCI-H929 cells, Celltiter-Glo
Outline: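 NCI-H929 cells in RPMI 1640 with 10% FBS were treated with compound dilutions for 48 h at 37° C, 5% CO2. Viability was read by CellTiter-Glo luminescence. Undefined stereocentres denote stereoisomer mixtures.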

[2] = test system: IL-2-FL/Gaussia Luciferase; test: Dox Induced IL2-FL-Gluc Assay; assay type: cell-based; settings: for IC50: 24 hr Dox induction, 293FRT/TO cells, mean, read-out: 24 hr Dox Inducible IL2FLGluc 293FRT/TO: Mean IC50; for 24 hr Dox Inducible IL2FLGluc 293FRT/TO: IL2/PD1: ratio of IL2FLGluc IC50 to PD1ssGluc IC50, '<=>' given where both are I.A.
Outline: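 Stable Flp-In 293 T-REx cells carrying doxycycline-inducible full-length IL-2 (aa 1-153) fused to Gaussia luciferase, plated the day before assay. Compound dilutions added in medium containing doxycycline, incubated at 37 °C, 5% CO2. Undefined stereocentres mean data refer to stereoisomer mixtures.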

[3] = test system: PD1-ss+10aa/Gaussia Luciferase; test: Dox-Induced PD1-ss-Gluc Assay; assay type: cell-based; settings: 24 hr Dox induction; 293FRT/TO cells; mean; read-out: 24 hr Dox Inducible PD1ssGluc 293FRT/TO: Mean IC50
Outline: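 Flp-In 293 T-REx cells stably carrying a doxycycline-inducible Gaussia luciferase fused to the PD1 signal sequence plus 10 aa were plated the day before. Compound dilutions in DMSO/media containing doxycycline were then added and incubated at 37 °C, 5% CO2. Data for undefined stereochemistry refer to stereoisomer mixtures.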

[4] = Liver Microsome Stability Assay (rat); settings: rat liver microsomes, with NADPH, 1.0 uM compound
Procedure: (§1) Stability of a compound was assessed in the presence of liver microsomes from various sources—mouse, rat, monkey and human liver microsomes. 1.0 uM compound, 0.4% DMSO in 0.1 M Potassium Phosphate with 1.0 mg/mL liver microsomes, were incubated at 37° C. with or without 1 mM NADPH. The samples were quenched at 0, and 30 minutes.

[5] = test system: HER3-ss+4aa/Gaussia Luciferase; test: Dox-Induced Her3-ss-Gluc Assay; assay type: cell-based; settings: 24 hr Dox induction; 293FRT/TO cells; mean; read-out: 24 hr Dox Inducible Her3(ss + 4)Gluc 293FRT/TO: Mean IC50
Outline: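 Stable Flp-In 293 T-REx cells carried a doxycycline-inducible HER3 signal sequence (+4 aa) fused to Gaussia luciferase. Cells were plated the day before the assay. Compound dilutions in DMSO/media containing doxycycline were then added, and plates were incubated at 37 °C, 5% CO2.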

[6] = Liver Microsome Stability Assay (human); settings: human liver microsomes, with NADPH, 1.0 uM compound
Procedure: as §1

[7] = Liver Microsome Stability Assay (mouse); settings: mouse liver microsomes, with NADPH, 1.0 uM compound
Procedure: as §1

[8] = test system: multiple myeloma cell line U266B1; test: U266 Cell Viability Assay; assay type: cell-based, human; settings: Homo sapiens, U-266, 48 h, U266B1 cells, Celltiter-Glo
Outline: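 U266B1 multiple myeloma cells in RPMI 1640/10% FBS were treated with compound dilutions for 48 h at 37 °C, 5% CO2. Viability was measured by CellTiter-Glo luminescence; compounds drawn without stereochemistry were tested as stereoisomer mixtures.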

[9] = Liver Microsome Stability Assay (monkey); settings: monkey liver microsomes, with NADPH, 1.0 uM compound
Procedure: as §1

[10] = test system: TNFα-FL/Gaussia Luciferase; test: Dox Induced TNFα-FL-Gluc Assay; assay type: cell-based; settings: for IC50: 24 hr Dox induction, 293FRT/TO cells, mean, read-out: 24 hr Dox Inducible TNFaFLGluc 293FRT/TO: Mean IC50; for 24 hr Dox Inducible TNFaFLGluc 293FRT/TO: TNF/PD1: ratio of TNFaFLGluc IC50 to PD1ssGluc IC50, '<=>' given where both are I.A.
Outline: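 Flp-In 293 T-REx cells stably carrying doxycycline-inducible full-length TNFα (aa 1-233) fused to Gaussia luciferase. Plated the day before, then treated with compound dilutions in doxycycline-containing medium at 37° C, 5% CO2.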

Row | Compound | EC50 [1] | IC50 [2] | 24 hr Dox Inducible IL2FLGluc 293FRT/TO: IL2/PD1 [2] | IC50 [3] | Liver Microsome Stability (Multiple Species): Rat - % Remaining after 30 min w/NADPH [4] | IC50 [5] | Liver Microsome Stability (Multiple Species): Human - % Remaining after 30 min w/NADPH [6] | Liver Microsome Stability (Multiple Species): Mouse - % Remaining after 30 min w/NADPH [7] | EC50 [8] | Liver Microsome Stability (Multiple Species): Monkey - % Remaining after 30 min w/NADPH [9] | IC50 [10] | 24 hr Dox Inducible TNFaFLGluc 293FRT/TO: TNF/PD1 [10]
1 | O=C(Nc1nc([C@H]2CCCN2c2ccc(C(F)(F)F)cc2)cs1)c1cccn1CC1CCOCC1 [Compound C91, (R)-1-((tetrahydro-2H-pyran-4-yl)methyl)-N-(4-(1-(4-(trifluoromethyl)phenyl)pyrrolidin-2-yl)thiazol-2-yl)-1H-pyrrole-2-carboxamide] | 4.21 µM | 0.345 µM | 3.7 | 0.0934 µM | 41.8% | 0.127 µM | 67.8% | 88.3% | > 25 µM | 28.2% | 1.24 µM | 13.3
2 | O=C(Nc1nc([C@H]2CCCN2c2ccccc2)cs1)c1cccn1CCCC1CCOC1 (stereo partly drawn) [Compound C92, N-(4-((R)-1-phenylpyrrolidin-2-yl)thiazol-2-yl)-1-(3-(tetrahydrofuran-3-yl)propyl)-1H-pyrrole-2-carboxamide] | 22 µM | 5.55 µM | 2.5 | 2.21 µM | 3.9% | 3.01 µM | 7.96% | 15.8% | > 25 µM | 5.09% | 24.5 µM | 11.1
3 | N#CCc1ccccc1Cn1cccc1C(=O)Nc1nc([C@H]2CCCN2c2ccccc2)cs1 [Compound C93, (R)-1-(2-(cyanomethyl)benzyl)-N-(4-(1-phenylpyrrolidin-2-yl)thiazol-2-yl)-1H-pyrrole-2-carboxamide] | > 25 µM | 1.63 µM | 0.38 | 4.27 µM | 1.23% | 1.08 µM | 3.12% | 16.3% | > 25 µM | 6.79% | > 25 µM | >5.86
4 | O=C(Nc1nc([C@H]2CCCN2c2ccccc2)cs1)c1cccn1CC1CC(F)(F)C1 [Compound C94, (R)-1-((3,3-difluorocyclobutyl)methyl)-N-(4-(1-phenylpyrrolidin-2-yl)thiazol-2-yl)-1H-pyrrole-2-carboxamide] | > 25 µM | 3.66 µM | 1 | 3.59 µM | 20.7% | 2.4 µM | 63.4% | 52.1% | > 25 µM | 10.6% | > 25 µM | >6.97
5 | CCc1ccc(N2CCC[C@@H]2c2csc(NC(=O)c3cccn3Cc3ccncc3)n2)cn1 [Compound C95, (R)-N-(4-(1-(6-ethylpyridin-3-yl)pyrrolidin-2-yl)thiazol-2-yl)-1-(pyridin-4-ylmethyl)-1H-pyrrole-2-carboxamide] | 0.127 µM | 0.0155 µM | 3.1 | 0.00505 µM | 1.89% | 0.0035 µM | 0.44% | 0.28% | 19.6 µM | 0.11% | 0.104 µM | 20.5
6 | CCc1ccc(N2CCC[C@@H]2c2csc(NC(=O)c3cccn3CC3CCOCC3)n2)cn1 [Compound C96, (R)-N-(4-(1-(6-ethylpyridin-3-yl)pyrrolidin-2-yl)thiazol-2-yl)-1-((tetrahydro-2H-pyran-4-yl)methyl)-1H-pyrrole-2-carboxamide] | 2.96 µM | 0.28 µM | 4.4 | 0.0637 µM | 0.76% | 0.0596 µM | 0.07% | 6.58% | > 25 µM | 0.13% | 0.943 µM | 14.8
7 | O=C(Nc1nc([C@H]2CCCN2c2ccccc2)cs1)c1cccn1CCC1COC1 [Compound C99, (R)-1-(2-(oxetan-3-yl)ethyl)-N-(4-(1-phenylpyrrolidin-2-yl)thiazol-2-yl)-1H-pyrrole-2-carboxamide] | 21.9 µM | 5.38 µM | 3.1 | 1.72 µM | 4.12% | 2.83 µM | 26.1% | 19.1% | > 25 µM | 0.26% | 16.8 µM | 9.72
8 | N#CC[C@H](O)Cn1cccc1C(=O)Nc1nc([C@H]2CCCN2c2ccccc2)cs1 [Compound C100, 1-((S)-3-cyano-2-hydroxypropyl)-N-(4-((R)-1-phenylpyrrolidin-2-yl)thiazol-2-yl)-1H-pyrrole-2-carboxamide] | > 25 µM | 6.46 µM | 0.85 | 7.64 µM | 13.6% | 15.9 µM | 19.1% | 19.8% | > 25 µM | 18.5% | > 25 µM | >3.27
